Data on 27 molecules can be found in patent US20220152031A1, “PYRIDAZINONES AND METHODS OF USE THEREOF” (Goldfinch Bio, Inc., priority 2019, published 2022).

The assay concerns the target T1, TRPC5 (Homo sapiens, UniProt Q9UL62).
T1 construct: expressed in transfected cells
T1 sequence (Q9UL62 1-973): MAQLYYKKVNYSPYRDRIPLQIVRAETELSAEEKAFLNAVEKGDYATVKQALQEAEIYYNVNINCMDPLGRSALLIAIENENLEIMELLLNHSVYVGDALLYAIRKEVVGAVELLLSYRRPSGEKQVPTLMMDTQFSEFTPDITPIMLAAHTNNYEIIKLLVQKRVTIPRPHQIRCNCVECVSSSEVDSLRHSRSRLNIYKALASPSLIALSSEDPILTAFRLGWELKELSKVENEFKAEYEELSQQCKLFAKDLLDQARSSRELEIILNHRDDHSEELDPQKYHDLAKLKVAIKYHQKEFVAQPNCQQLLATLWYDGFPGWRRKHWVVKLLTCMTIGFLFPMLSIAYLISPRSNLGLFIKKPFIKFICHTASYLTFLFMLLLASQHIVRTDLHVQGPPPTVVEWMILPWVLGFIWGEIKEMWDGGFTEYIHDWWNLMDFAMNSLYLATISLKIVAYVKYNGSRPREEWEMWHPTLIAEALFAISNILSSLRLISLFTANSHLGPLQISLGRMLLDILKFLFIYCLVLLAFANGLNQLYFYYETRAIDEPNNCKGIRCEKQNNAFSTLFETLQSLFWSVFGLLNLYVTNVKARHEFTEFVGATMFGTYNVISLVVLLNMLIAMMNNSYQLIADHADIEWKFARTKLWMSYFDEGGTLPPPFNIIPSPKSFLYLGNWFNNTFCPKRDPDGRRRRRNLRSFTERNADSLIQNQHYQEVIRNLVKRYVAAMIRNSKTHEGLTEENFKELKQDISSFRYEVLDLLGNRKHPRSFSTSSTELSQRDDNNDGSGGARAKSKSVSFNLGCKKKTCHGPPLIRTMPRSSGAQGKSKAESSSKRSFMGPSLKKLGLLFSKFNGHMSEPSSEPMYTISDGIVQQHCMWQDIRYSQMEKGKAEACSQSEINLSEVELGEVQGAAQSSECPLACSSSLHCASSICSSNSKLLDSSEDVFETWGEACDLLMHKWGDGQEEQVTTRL
As to the kind of experiment: TRPC5 activity assay (FLIPR calcium fluorescence, HEK-TREx hTRPC5 cells). The assay is classed as cell-based. The following applies: HEK-TREx hTRPC5 cells, FLIPR, 30 μM Riluzole stimulation; read-out: TRPC5. As to the method:
ICLN-1633 cells (HEK-TREx hTRPC5) expressing TRPC5 were generated as follows. Commercially available HekTrex-293 cells were seeded at 0.7×10^6 cells/well in a 1×6-well plate 24 hrs prior to transfection using 2 mL cell growth media containing no antibiotics (lx DMEM/high glucose (Hyclone #SH30022.02); 10% fetal bovine serum (Sigma) 2 mM sodium pyruvate, 10 mM HEPES). […] On day 2, 2 μg of plasmid DNA plus 6 μl of Xtreme-GENE HP reagent in Optimem (200 μl total volume) was prepared and incubated for 15 min at room temperature. This plasmid solution was then gently overlayed dropwise onto each well and the plate was gently swirled to mix complex with the media for approximately 30 seconds. Transfected cells were incubated at 37° C. in a 10% CO2 incubator for 24 hrs. The transfected cells were harvested and transferred into 2×150 mm dishes containing cell growth media with no antibiotics at 37° C.
The next day selection was initiated to generate a stable pool by adding cell growth media containing 150 μg/mL Hygromycin and 5 μg/mL Blasticidin and cells were allowed to grow. Media with the selection agent was changed every 1-2 days as needed to remove dead cells. After 7 days, the hygromycin concentration was reduced to 75 μg/mL and cells growth was allowed to continue.
Single clones were selected as follows. The stable pool was diluted to 10 cells/mL and seeded (100 μl/well) into 24×96 well plates (˜1 cell/well) and allowed to grow for 7 days in cell growth media. Fresh media (100 μl) was added and the cells allowed to grow for another 1-2 weeks and then stored frozen or used immediately.
10-point dose response curves were generated using the Echo-550 acoustic dispenser. Compound source plates were made by serially diluting compound stocks to create 10 mM, 1 mM, and 0.1 mM solutions in DMSO into Echo certified LDV plates. The Echo then serially spotted 100% DMSO stock solutions into source dose response plates to generate a 4-fold dilution scheme. 100% DMSO was added to the spotted dose response plates to bring the final volume to 5 μl. 300 nl of the dose response stock plate was then spotted into pre-incubation and stimulation assay plates. 50 μl of pre-incubation buffer and 100 μl of stimulation buffer was then added to the plates resulting in a final assay test concentration range of 30 μM to 0.0001 μM with a final DMSO concentration of 0.3%.
Human ICLN-1633 cells expressing were plated onto 384 well, black PDL-coated microplates and maintained in TRPC5 growth media the day prior to use for experiments. TRPC5 expression was induced by the application of 1 μg/mL tetracycline at the time of plating. […] Cells are incubated at room temperature, protected from light, for 60-90 minutes. After the incubation period, the dye is removed and replaced with 10 μl of EBSS. Cell, pre-incubation and stimulation plates are loaded onto the FLIPR-II and the assay is initiated. The FLIPR measures a 10 second baseline and then adds 10 μl of 2× compounds (or controls). Changes in fluorescence are monitored for an additional 5 minutes. After the 5 minute pre-incubation, 20 μl of 2× Riluzole (with 1× compound or controls) is added to the cell plate. The final Riluzole stimulation concentration in the assay is 30 μM. After the Riluzole addition, changes in fluorescence are monitored for an additional 5 minutes.
Compound modulation of TRPC5 calcium response was determined as follows. After the Englerin A, fluorescence was monitored for a 5-minute period. The maximum relative fluorescence response (minus the control response of 1 μM of an internal control compound known to maximally block TRPC5 calcium response, the “REF INHIB” in the formula below) was captured and exported from the FLIPR.
Compound effect is calculated as % inhibition using the following formula: […]
wherein “RFU” is the relative fluorescent units.
With `C[C@@H](O)c1nc2c(c(Oc3ccccc3C(F)(F)F)n1)CCN(c1cn[nH]c(=O)c1Cl)C2` (single isomer, unassigned) [Compound 122], the IC50 was less than 50 nM.

Take `C[C@H](O)c1nc2c(c(Oc3ccccc3C(F)(F)F)n1)CCN(c1cn[nH]c(=O)c1Cl)C2` (single isomer, unassigned) [Compound 123]: the IC50 was 50 to 500 nM.

On to `O=c1[nH]ncc(N2CCc3c(ncnc3Oc3ccccc3Cl)C2)c1Cl` [Compound 101], for which the IC50 was less than 50 nM.

In the case of `Nc1nc2c(c(Oc3ccccc3C(F)(F)F)n1)CCN(c1cn[nH]c(=O)c1Cl)C2` [Compound 102], the IC50 was less than 50 nM.

For the molecule `O=c1[nH]ncc(N2CCc3c(ncnc3Oc3ccccc3C(F)F)C2)c1Cl` [Compound 103, 4-Chloro-5-[4-[2-(difluoromethyl)phenoxy]-5H,6H,7H,8H-pyrido[3,4-d]pyrimidin-7-yl]-2,3-dihydropyridazin-3-one], the IC50 is less than 50 nM.

On to `O=c1[nH]ncc(N2CCc3c(ncnc3Oc3ccc(F)cc3C(F)F)C2)c1Cl` [Compound 105], for which the IC50 was less than 50 nM.

Turning to `O=c1[nH]ncc(N2CCc3c(ncnc3Oc3cc(F)ccc3C(F)(F)F)C2)c1Cl` [Compound 106], the IC50 is less than 50 nM.

In the case of `O=c1[nH]ncc(N2CCc3c(ncnc3Oc3cnccc3C(F)(F)F)C2)c1Cl` [Compound 107], the IC50 is less than 50 nM.

As for `N#Cc1cccc(Oc2ncnc3c2CCN(c2cn[nH]c(=O)c2Cl)C3)c1Cl` [Compound 108, 2-Chloro-3-[[7-(5-chloro-6-oxo-1,6-dihydropyridazin-4-yl)-5H,6H,7H,8H-pyrido[3,4-d]pyrimidin-4-yl]oxy]benzonitrile], the IC50 was 50 to 500 nM.

As to `CCc1c(F)cccc1Oc1ncnc2c1CCN(c1cn[nH]c(=O)c1Cl)C2` [Compound 109, 4-Chloro-5-[4-(2-ethyl-3-fluorophenoxy)-5H,6H,7H,8H-pyrido[3,4-d]pyrimidin-7-yl]-2,3-dihydropyridazin-3-one], the IC50 is less than 50 nM.

Regarding `COc1nc2c(c(Oc3ccccc3C(F)(F)F)n1)CCN(c1cn[nH]c(=O)c1Cl)C2` [Compound 110, 4-Chloro-5-[2-methoxy-4-[2-(trifluoromethyl)phenoxy]-5H,6H,7H,8H-pyrido[3,4-d]pyrimidin-7-yl]-2,3-dihydropyridazin-3-one], the IC50 was in the range of 50 to 500 nM.

`N#Cc1cccc(Oc2ncnc3c2CCN(c2cn[nH]c(=O)c2Cl)C3)c1C(F)(F)F` [Compound 111, 3-[[7-(5-Chloro-6-oxo-1,6-dihydropyridazin-4-yl)-5H,6H,7H,8H-pyrido[3,4-d]pyrimidin-4-yl]oxy]-2-(trifluoromethyl)benzonitrile]: the IC50 was 50 to 500 nM.

On to `Nc1nc2c(c(Oc3ccc(F)cc3Cl)n1)CCN(c1cn[nH]c(=O)c1Cl)C2` [Compound 112, 5-[2-amino-4-(2-chloro-4-fluorophenoxy)-5H,6H,7H,8H-pyrido[3,4-d]pyrimidin-7-yl]-4-chloro-2,3-dihydropyridazin-3-one], for which the IC50 was less than 50 nM.

For `Nc1nc2c(c(Oc3ccccc3Cl)n1)CCN(c1cn[nH]c(=O)c1Cl)C2` [Compound 113], the IC50 was less than 50 nM.

Regarding `O=c1[nH]ncc(N2CCc3c(nc(CO)nc3Oc3ccc(F)cc3Cl)C2)c1Cl` [Compound 114], the IC50 was less than 50 nM.

On to `O=c1[nH]ncc(N2CCc3c(nc(NCCO)nc3Oc3ccccc3C(F)(F)F)C2)c1Cl` [Compound 115, 4-chloro-5-[2-[(2-hydroxyethyl)amino]-4-[2-(trifluoromethyl)phenoxy]-5H,6H,7H,8H-pyrido[3,4-d]pyrimidin-7-yl]-2,3-dihydropyridazin-3-one], for which the IC50 lay in the range of 50 to 500 nM.

For `Nc1nc2c(c(Oc3ccc(F)cc3C(F)(F)F)n1)CCN(c1cn[nH]c(=O)c1Cl)C2` [Compound 116], the IC50 is less than 50 nM.

For `C[C@@H]1c2ncnc(Oc3ccc(F)cc3Cl)c2CCN1c1cn[nH]c(=O)c1Cl` [Compound 118, 4-chloro-5-[(8R)-4-(2-chloro-4-fluorophenoxy)-8-methyl-5H,6H,7H,8H-pyrido[3,4-d]pyrimidin-7-yl]-2,3-dihydropyridazin-3-one], the IC50 lay within 50 to 500 nM.

As to `C[C@@H](O)c1nc2c(c(Oc3ccc(F)cc3Cl)n1)CCN(c1cn[nH]c(=O)c1Cl)C2` [Compound 119], the IC50 is less than 50 nM.

For the molecule `O=c1[nH]ncc(N2CCc3c(ccnc3Oc3ccc(F)cc3C(F)(F)F)C2)c1Cl` [Compound 120, 4-chloro-5-[5-[4-fluoro-2-(trifluoromethyl)phenoxy]-1,2,3,4-tetrahydro-2,6-naphthyridin-2-yl]-2,3-dihydropyridazin-3-one], the IC50 was less than 50 nM.

Regarding `O=c1[nH]ncc(N2CCc3c(ncnc3Oc3c(F)cccc3C(F)(F)F)C2)c1Cl` [Compound 121], the IC50 is less than 50 nM.

In the case of `Cc1cc(F)ccc1Oc1ncnc2c1CCN(c1cn[nH]c(=O)c1Cl)C2` [Compound 124], the IC50 was less than 50 nM.

For `O=c1[nH]ncc(N2CCc3c(nc(CO)nc3Oc3ccc(F)cc3C(F)(F)F)C2)c1Cl` [Compound 125], the IC50 was less than 50 nM.

`CN(c1ccc(F)cc1C(F)(F)F)c1cc(=O)n(C)c2c1CCN(c1cn[nH]c(=O)c1Cl)C2` [Compound 127, 7-(5-Chloro-6-oxo-1,6-dihydropyridazin-4-yl)-4-[[4-fluoro-2-(trifluoromethyl)phenyl](methyl)amino]-1-methyl-1,2,5,6,7,8-hexahydro-1,7-naphthyridin-2-one]: the IC50 was 50 to 500 nM.

Regarding `O=c1[nH]ncc(N2CCc3c(nc(CO)nc3Oc3ccccc3C(F)(F)F)C2)c1Cl` [Compound 128], the IC50 is less than 50 nM.

As to `CN(c1cnccc1C(F)(F)F)c1ncnc2c1CCN(c1cn[nH]c(=O)c1Cl)C2` [Compound 131, 4-chloro-5-(4-[methyl[4-(trifluoromethyl)pyridin-3-yl]amino]-5H,6H,7H,8H-pyrido[3,4-d]pyrimidin-7-yl)-2,3-dihydropyridazin-3-one], the IC50 was less than 50 nM.

With `O=c1[nH]ncc(N2CCc3c(ncnc3C3(c4ccc(F)cc4C(F)(F)F)CC3)C2)c1Cl` [Compound 132, 4-Chloro-5-(4-[1-[4-fluoro-2-(trifluoromethyl)phenyl]cyclopropyl]-5H,6H,7H,8H-pyrido[3,4-d]pyrimidin-7-yl)-2,3-dihydropyridazin-3-one], the IC50 was 50 to 500 nM.
